Where “and” joins values, the source holds several entries; their conditions need not be identical. Equal values may be shown once. Entries after “also recorded” stand apart in the source; their conditions may differ.
Tested on: ALK-positive advanced NSCLC
Assay: Phase I clinical trial, indication expansion phase: efficacy in ALK-positive patients (group A cohort 1: prior crizotinib only; cohort 2: prior second-generation ALK inhibitor; group C: ALK inhibitor naive)
Assay type: in vivo, human
Method: The anti-tumor efficacy is evaluated according to RECIST version 1.1. For patients initially evaluated as having a complete response (CR) or partial response (PR), efficacy should be confirmed at least 4 weeks later. In the patients with asymptomatic central nervous system (CNS) metastases, in addition to evaluating 5 extracranial target lesions, up to 5 intracranial target lesions will also be evaluated. The specific indicators are as follows:
"ORR" includes CR and PR, and is defined as the proportion of patients who achieve complete response or partial response.
"IC-ORR" includes CR or PR for confirmed intracranial lesions, and is defined as the proportion of the patients with complete response or partial response of intracranial lesions among the patients with intracranial lesions.
"DCR" is defined as the proportion of the patients who achieve response (PR+CR) and stable disease (SD) after a treatment.
"IC-DCR" is defined as the proportion of the patients who achieve intracranial response (PR+CR), intracranial stable disease (SD), and […] after a treatment among the patients with intracranial lesions.
"DOR" is defined as the time from the first assessment of CR or PR to progressive disease or death, and is only applicable to the patients who achieve response.
"IC-DOR" is defined as the time from the first assessment of intracranial CR or intracranial PR to progressive disease or death, and is only applicable to the patients whose intracranial lesions achieve response.
"TTR" is defined as the time from patient enrollment (first dose of investigational drug) to tumor response (CR/PR), based on the patients with objective response.
"IC-TTR" is defined as the time from patient enrollment (first dose of investigational drug) to intracranial tumor response (IC-CR/PR), based on the patients with intracranial objective response.
"PFS" is defined as the time from the first administration of the investigational drug to progressive disease (PD) or death from any cause, whichever comes first.
In the indication expansion phase, an appropriate administration regimen was determined based on the safety, tolerability, PK and efficacy data from the dose escalation phase and dose expansion phase, and the expansion was performed within the target population.
The result of a pregnancy test conducted ≤7 days prior to the first administration of the investigational drug must be negative for the women of childbearing age.

[1] = intracranial measurable lesions, Group A, cohort 2 (n=27)
[2] = intracranial measurable lesions, Group C (n=8)
[3] = intracranial measurable lesions, In total (ALK-positive) (n=52)
[4] = systemic, Group A, cohort 1 (n=14)
[5] = systemic, Group A, cohort 2 (n=97)
[6] = systemic, In total (ALK-positive) (n=144)

Structure (SMILES): [2H]C([2H])([2H])n1nc2c(c1C#N)-c1cnc(N)c(c1)O[C@H](C)c1cc(F)ccc1C(=O)N(C)C2 [compound A, (10R)-7-amino-12-fluoro-2-(methyl-d3)-10,16-dimethyl-15-oxo-10,15,16,17-tetrahydro-2H-8,4-(metheno)pyrazolo[4,3-h][2,5,11]benzoxadiazacyclotetradecine-3-carbonitrile]
- BOR CR [1]: 5 n (%) and 5 (18.5) n (%)
- BOR NE [1]: 1 (3.7) n (%)
- BOR PD [1]: 0 n (%)
- BOR PR [1]: 14 n (%) and 14 (51.9) n (%)
- BOR SD [1]: 7 (25.9) n (%)
- Confirmed ORR (95% CI) [1]: 19 (70.4) (49.8, 86.2) n (%)
- DCR (95% CI) [1]: 26 (96.3) (81.0, 99.9) n (%)
- Median DOR (95% CI) [1]: 17.97 months and 17.97 (6.64, NR) months
- Median TTR (range) [1]: 1.41 months and 1.41 (1.31, 9.72) months
- BOR CR [2]: 0 n (%)
- BOR NE [2]: 0 n (%)
- BOR PD [2]: 0 n (%)
- BOR PR [2]: 6 n (%) and 6 (75.0) n (%)
- BOR SD [2]: 2 (25.0) n (%)
- Confirmed ORR (95% CI) [2]: 6 (75.0) (34.9, 96.8) n (%)
- DCR (95% CI) [2]: 8 (100) (63.1, 100) n (%)
- Median DOR (95% CI) [2]: not reached; also recorded: NR (4.17, NR)
- Median TTR (range) [2]: 1.41 months and 1.41 (1.35, 1.45) months
- BOR CR [3]: 6 (11.5) n (%)
- BOR NE [3]: 2 (3.8) n (%)
- BOR PD [3]: 1 (1.9) n (%)
- BOR PR [3]: 24 (46.2) n (%)
- BOR SD [3]: 19 (36.5) n (%)
- Confirmed ORR (95% CI) [3]: 30 (57.7) (43.2, 71.3) n (%)
- DCR (95% CI) [3]: 49 (94.2) (84.1, 98.8) n (%)
- Median DOR (95% CI) [3]: 17.97 (17.97, -) months
- Median TTR (range) [3]: 1.40 (1.31, 9.72) months
- intracranial ORR (prior crizotinib, four patients with measurable CNS lesions at baseline): 50.0%
- IC-ORR (prior second-generation TKI, 27 patients with measurable CNS lesions at baseline): 70.4%
- BOR CR [4]: 0 n (%)
- BOR NE [4]: 0 n (%)
- BOR PD [4]: 0 n (%)
- BOR PR [4]: 10 n (%) and 10 (71.4) n (%)
- BOR SD [4]: 4 n (%) and 4 (28.6) n (%)
- Confirmed ORR (95% CI) [4]: 10 (71.4) (41.9, 91.6) n (%)
- DCR (95% CI) [4]: 14 (100) (76.8, 100.0) n (%)
- Median DOR (95% CI) [4]: not reached; also recorded: NR (5.585, NR)
- Median TTR (range) [4]: 2.71 months and 2.71 (1.25, 9.66) months
- BOR CR [5]: 0 n (%)
- BOR NE [5]: 2 (2.1) n (%)
- BOR PD [5]: 16 (16.5) n (%)
- BOR PR [5]: 38 (39.2) n (%)
- BOR SD [5]: 41 (42.3) n (%)
- Confirmed ORR (95% CI) [5]: 38 (39.2) (29.4, 49.6) n (%)
- DCR (95% CI) [5]: 79 (81.4) (72.3, 88.6) n (%)
- Median DOR (95% CI) [5]: 12.48 months and 12.48 (12.45, NR) months
- Median TTR (range) [5]: 1.38 months and 1.38 (1.28, 9.72) months
- BOR CR (systemic, Group C (n=33)): 0 n (%)
- BOR NE (systemic, Group C (n=33)): 0 n (%)
- BOR PD (systemic, Group C (n=33)): 1 (3.0) n (%)
- BOR PR (systemic, Group C (n=33)): 28 n (%) and 28 (84.8) n (%)
- BOR SD (systemic, Group C (n=33)): 4 n (%) and 4 (12.1) n (%)
- Confirmed ORR (95% CI) (systemic, Group C (n=33)): 28 (84.8) (68.1, 94.9) n (%)
- DCR (95% CI) (systemic, Group C (n=33)): 32 (97.0) (84.2, 99.9) n (%)
- Median DOR (95% CI) (systemic, Group C (n=33)): not reached; also recorded: NR (9.69, NR)
- Median TTR (range) (systemic, Group C (n=33)): 1.35 months and 1.35 (1.12, 4.21) months
- BOR CR [6]: 0 n (%)
- BOR NE [6]: 5 (2.9) n (%)
- BOR PD [6]: 21 (12.3) n (%)
- BOR PR [6]: 84 (49.1) n (%)
- BOR SD [6]: 61 (35.7) n (%)
- Confirmed ORR (95% CI) [6]: 84 (49.1) (41.4, 56.9) n (%)
- DCR (95% CI) [6]: 145 (84.8) (78.5, 89.8) n (%)
- Median DOR (95% CI) [6]: 12.48 (12.45, -) months
- Median TTR (range) [6]: 1.38 (1.12, 13.96) months
